According to ChEMBL document CHEMBL1157997, “A new biologically active acylated triterpene saponin from Silene fortunei” (J Nat Prod, 1999):

What was measured:
[1] = Enhancement of human neutrophil granulocytes phagocytosis at 10 to 100 ug/mL by flow cytometric analysis; assay type: functional
[2] = Cytotoxicity against human neutrophil granulocytes upto 100 ug/mL

CC(=O)O[C@@H]1[C@H](O[C@@H]2O[C@H](CO)[C@@H](O)[C@H](O)[C@H]2O)[C@@H](O[C@@H]2O[C@@H](C)[C@H](O[C@@H]3OC[C@@H](O)[C@H](O)[C@H]3O[C@@H]3OC[C@H](O)[C@H](O)[C@H]3O[C@@H]3OC[C@H](O)[C@H](O)[C@H]3O)[C@@H](O)[C@H]2O)[C@H](OC(=O)[C@]23CCC(C)(C)C[C@H]2C2=CC[C@@H]4[C@@]5(C)CC[C@H](O[C@@H]6O[C@H](C(=O)O)[C@@H](O)[C@H](O)[C@H]6O[C@@H]6O[C@H](CO)[C@H](O)[C@H](O)[C@H]6O)[C@@](C)(C=O)C5=CC[C@@]4(C)[C@]2(C)C[C@H]3O)O[C@@H]1C
Activity [1]: 24%
Activity [2]: Non-toxic
